In PubChem BioAssay (NCI) one finds GI50 and TGI data, which are given here for ten compounds.

What all share (experiment): DTP human tumour cell line panel, 48 h
Test [1] has as its system DU-145 prostate.
The subject of test [2] is HT29 colon.
Test [3] deals with MOLT-4 leukemia.
Test [4] relates to NCI-H522 lung.
Test [5] has as its system OVCAR-5 ovarian.
The subject of test [6] is PC-3 prostate.
For test [7], the system named is SK-OV-3 ovarian.
Test [8] relates to UO-31 renal.
The test system of test [9] is ACHN renal.
Test [10] deals with SK-MEL-5 melanoma.

Values joined by “and” are separate entries in the source; they are usually repeats but may differ in a detail not shown here. Equal entries are not always repeated.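 The compound was tested at five concentrations on cells cultured in 96-well plates, with a 48-hour exposure period. GI50 marks 50% less growth. Definition used: TGI = concentration required for complete inhibition of growth.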

As usually defined, the GI50 is the concentration at which growth is held to half of that of the control. As a reminder, the TGI is the concentration at which net growth stops. A lower TGI goes with greater sensitivity of the cells. On to `OCc1ccc(Oc2c3ccccc3nc3occc23)cc1`, for which the GI50 in test [1] is 33.6 µM; in test [2], 28.6 µM; in test [3], 21 µM; in [4] it was above 100 µM; in [5], 29.5 µM; in [6], 31.8 µM. Also, the figures for the GI50 in [7] and in test [8] were 36.8 µM and 77.2 µM, respectively. Further, the TGI in test [1] is above 100 µM; in test [2], above 100 µM; in test [3], 47.2 µM; in test [4] it was above 100 µM; in [5] it was above 100 µM; in test [6], above 100 µM. Moreover, the total growth inhibition concentration (TGI) in [7] and in test [8] was above 100 µM throughout.

`O=C(NC1(C(=O)O)CC1c1ccccc1)c1ccccc1` (stereo not given): the TGI in [9], in test [1], in test [2], in test [3], in test [4] and in test [5] was above 100 µM in each case. Besides, the TGI in test [6], in [7] and in [8] was above 100 µM each time.

Turning to `COc1cc(/C=C2\C(=O)Nc3ccccc32)cc(OC)c1OC`, the GI50 was 26.4 µM in test [9]; 19.8 µM in test [2]; 12 µM in test [3]; 14.1 µM in test [4]; 29.2 µM in [5]; 18.8 µM in test [6]. The GI50 in test [10] is 11.1 µM; in [7] it was 26.1 µM; in test [8], 30.4 µM. Moreover, the TGI in test [9] was above 100 µM; in test [2], above 100 µM; in test [3] it was 71.3 µM; in test [4] it was 90.4 µM; in [5], 76.2 µM; in [6] it was above 100 µM. Besides, the TGI was 57.1 µM in test [10], above 100 µM in [7] and above 100 µM in test [8].

In the case of `NC1=NC(c2ccc(F)cc2)C2=C(N1)c1ccc3ccccc3c1OCC2` (stereo not given), the GI50 is 29.7 µM in test [9]; above 100 µM in [1]; 4.96 µM in test [2]; above 100 µM in [4]; above 100 µM in test [5]; above 100 µM in test [6]. In addition, the GI50 in test [10] is 5.01 µM; in test [7], 26.8 µM; in test [8], above 100 µM. Moreover, the TGI in test [9], in [1], in [2], in test [4], in test [5] and in test [6] was above 100 µM in each case. Also, the TGI in test [10], in test [7] and in test [8] was above 100 µM in each case.

With `CC1(C)N[P+]2(Nc3ccccc3O2)OC1=O` (stereo not given), the TGI in [9], in [1], in [2], in [3], in test [5] and in test [6] was above 100 µM each time. For the same compound, the TGI in [10], in test [7] and in test [8] was above 100 µM in each case.

For the compound `COc1ccc(-c2csc3c2-n2cccc2C3=O)cc1O`, the GI50 in test [9] was below 0.0489 µM; in test [2], 3.68 µM; in test [3], 0.132 µM; in test [4], below 0.01 µM; in [5], 1.5 µM; in [6], 0.265 µM. Besides, the GI50 in test [10] is 0.0326 µM; in test [7], 0.0452 µM; in test [8], 0.401 µM. The total growth inhibition concentration (TGI) was above 100 µM in [9]; above 78.1 µM in [2]; 6.1 µM in test [3]; 0.0434 µM in test [4]; above 100 µM in test [5]; above 100 µM in test [6]. Further, the TGI was 0.237 µM in test [10], 18.1 µM in test [7] and 50.6 µM in test [8].

In the case of `NC(N)=N/N=C/c1c(-c2ccc(Cl)c([N+](=O)[O-])c2)nc2ccccn12`, the GI50 in [9] was 11.3 µM; in test [1], 1.94 µM; in [2], 1.42 µM; in [3], 1.68 µM; in test [5], 1.73 µM; in [6], 1.37 µM. The GI50 is 13.3 µM in test [10] and 1.71 µM in [8]. Also, the TGI in [9] is 34.9 µM; in [1] it was 5.6 µM; in test [2] it was above 100 µM; in test [3] it was 3.64 µM; in test [5], 3.21 µM; in [6], 2.65 µM. The TGI in test [10] is 41.3 µM; in test [8], 3.79 µM.

With `COc1ccc(-c2nc3sc4c(c3c(=O)[nH]2)CCCC4)c2ccccc12`, the GI50 was 0.755 µM in test [9]; 0.301 µM in test [5]; 0.343 µM and 0.0371 µM in test [6]; 0.59 µM in test [8]. Moreover, the TGI in test [1] was 17.5 µM; in [3] it was above 100 µM; in test [4] it was 0.0179 µM; in [5], 4.59 µM; in test [6], above 100 µM; in test [10] it was 5.52 µM. In [7], this compound yielded a TGI of 3.74 µM.

Consider `Cc1ccc2nc(N/N=C/c3cccc(C)n3)cc(C)c2c1`, for which the TGI was determined as 31.4 µM in test [9]; 36.3 µM in test [1]; 27.3 µM in test [2]; 39.8 µM in test [4]; 28.5 µM in test [5]; 37.2 µM in [6]. Further, the TGI amounted to 36.4 µM in [10], 30.2 µM in [7] and 41.3 µM in test [8].

`Cc1ccc(Oc2nc3ccccc3cc2-c2nnc(Cn3c(COc4ccccc4)nc4ccccc43)o2)cc1`: the GI50 was 5.46 µM in [1]; 2.02 µM in test [2]; 2.18 µM in test [3]; 6.34 µM in test [4]; 2.71 µM in test [6]; 1.9 µM in test [10]. The GI50 in test [7] is 11.8 µM; in test [8] it was 1.19 µM. For the same compound, the TGI in [1] was 45.7 µM; in [2], 4.43 µM; in [3], 7.89 µM; in test [4], 21.1 µM; in test [6], 15.4 µM; in test [10], 3.97 µM. Further, the TGI came to 32.7 µM in test [7] and 10.2 µM in test [8].
